PubChem BioAssay AID456 (Sanford-Burnham Center for Chemical Genomics, 2006)

Test system: HUVEC TNFa-induced VCAM-1 surface expression, immunofluorescence imaging
Experiment: inhibitors of TNFa-induced VCAM-1 surface display, imaging, high-content imaging, pooled HUVEC, TNFa stimulus (AID 456)

Row | Compound | IC50 [µM]
1 | O=C1CCn2nc(-c3ccc(Cl)cc3)cc2N1 | 12.3
2 | CS(=O)(=O)c1ncc(Cl)c(C(=O)Nc2ccc(N3CCOCC3)cc2)n1 | 6.5
3 | CCOC(=O)c1ccc(N=c2sc(C(=O)OC)cc(=O)n2Cc2ccco2)cc1 | 4.92
4 | CCN1C(=O)c2cccc3c(NC(=O)c4ccc(S(=O)(=O)N(C)C)cc4)ccc1c23 | 12.1
5 | Clc1ccc(OCc2nnc(SCCN3CCCCC3)n2Cc2ccco2)cc1 | 13.9
6 | O=S1(=O)C=C(Sc2nc3ccccc3s2)c2ccccc21 | 2.35
7 | S=C(NCC1CCCO1)n1nnc2ccccc21 (configuration not stated) | 8.83
8 | CN(C)CCCN1c2ccccc2CCc2ccc(Cl)cc21 | 10.2
9 | Oc1ccc(Nc2nc(-c3ccc(O)cc3)cs2)cc1 | 11.6
10 | C/C=C(\CS(=O)(=O)c1ccccc1)S(=O)(=O)c1ccccc1 | 6.39
11 | Cc1nc2sccn2c(=O)c1CCN1CCC(=C(c2ccccc2)c2ccc(F)cc2)CC1 | 11.5
12 | C=CS(=O)(=O)c1ccc(Oc2ccc(S(=O)(=O)C=C)cc2)cc1 | 1.2
13 | CN(C)CCCN1c2ccccc2Sc2ccc(Cl)cc21 | 8.47
14 | O=C(Cn1nc(-c2ccc(Cl)cc2)ccc1=O)NCCCN1CCN(Cc2ccccc2)CC1 | 16.9
15 | Cc1oc(-c2cccc(Cl)c2)nc1CN1CCC(C(=O)N2CCN(c3ccccc3F)CC2)CC1 | 8.7
16 | CC(C)C[C@H]1C(=O)N2CCC[C@H]2[C@]2(O)O[C@](NC(=O)[C@@H]3C=C4c5cccc6[nH]c(Br)c(c56)CC4N(C)C3)(C(C)C)C(=O)N12 (some centres not stated) | 11
17 | N#Cc1cc2sc3nnc(-c4ccncc4)n3c2cc1C#N | 13.7
